Test results from ChEMBL document CHEMBL1148439, “A phenylnorstatine inhibitor binding to HIV-1 protease: geometry, protonation, and subsite-pocket interactions analyzed at atomic resolution” (J Med Chem, 2004).
pKi: −log10 of the molar value.

Target: Human immunodeficiency virus type 1 protease (Human immunodeficiency virus 1, UniProt Q72874, V82A)
Test: Tested for inhibitor binding of Val82Ala mutant of HIV PR
Parameters: species or system human immunodeficiency virus type1

Work on `NC(=O)[C@H](CCC(=O)O)NC(=O)[C@H](CCC(=O)O)NC(=O)[C@H](Cc1ccccc1)NC(=O)[C@H](O)[C@H](Cc1ccccc1)NC(=O)OCc1ccccc1` yielded a pKi of 9.96.
